The text below walks through data of PMC10094600, “Enzymatic Synthesis of 2-Chloropurine Arabinonucleosides with Chiral Amino Acid Amides at the C6 Position and an Evaluation of Antiproliferative Activity In Vitro” (International Journal of Molecular Sciences, 2023).

The Ki is a measure of affinity in units of concentration, obtained from inhibition or displacement. Higher therefore signals lower affinity.

For the experiment, the target named is T1, E. coli adenosine deaminase (Escherichia coli, UniProt P22333).
T1 construct: gene add; recombinant
T1 sequence (P22333 1-333): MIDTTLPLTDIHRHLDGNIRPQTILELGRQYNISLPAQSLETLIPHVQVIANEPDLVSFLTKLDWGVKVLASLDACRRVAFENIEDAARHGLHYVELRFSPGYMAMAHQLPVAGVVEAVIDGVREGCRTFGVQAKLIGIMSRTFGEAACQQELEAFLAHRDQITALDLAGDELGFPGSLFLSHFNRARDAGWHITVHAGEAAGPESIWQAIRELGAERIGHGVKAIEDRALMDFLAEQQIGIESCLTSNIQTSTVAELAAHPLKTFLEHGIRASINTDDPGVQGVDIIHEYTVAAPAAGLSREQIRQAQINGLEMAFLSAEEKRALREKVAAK
The experiment is described as follows: inhibition of adenosine deamination, HPLC, Lineweaver-Burk. Format: biochemical.

Turning to `Nc1nc(Cl)nc2c1ncn2[C@@H]1O[C@H](CO)[C@@H](O)[C@@H]1O` [compound 16, 6-Amino-2-chloro-9-beta-D-arabinofuranosyl-9H-purine], the Ki is 130 ± 20 µM.
`Nc1nc(Cl)nc2c1ncn2[C@@H]1O[C@H](CO)[C@@H](O)[C@H]1O` [compound 15, 2-chloradenosine] gave a Ki of 78 ± 12 µM.
For `NC(=O)[C@H](CO)Nc1nc(Cl)nc2c1ncn2[C@@H]1O[C@H](CO)[C@@H](O)[C@@H]1O` [4b, 9-β-D-Arabinofuranosyl-2-chloro-6-(N^α-L-serinylamido)-purine] the value was 1200 ± 200 µM.
